Test results: article PMC11848559, “Inhibition of CDH11 Activates cGAS‐STING by Stimulating Branched Chain Amino Acid Catabolism and Mitigates Lung Metastasis of Adenoid Cystic Carcinoma” (Advanced Science, 2024)
Like-named read-outs stand apart in the source and are kept apart here.

Assays:
[1] = target: T1, Recombinant Human His-Tagged Cadherin-11 Protein (CDH11) (Homo sapiens, UniProt P55287); test: surface plasmon resonance (Biacore, CM7 chip, protein immobilised); assay type: binding
T1 construct: commercial recombinant His-tagged protein (Sino Biological); amine-coupled to CM7 chip
T1 sequence (P55287 54-617 limits assumed): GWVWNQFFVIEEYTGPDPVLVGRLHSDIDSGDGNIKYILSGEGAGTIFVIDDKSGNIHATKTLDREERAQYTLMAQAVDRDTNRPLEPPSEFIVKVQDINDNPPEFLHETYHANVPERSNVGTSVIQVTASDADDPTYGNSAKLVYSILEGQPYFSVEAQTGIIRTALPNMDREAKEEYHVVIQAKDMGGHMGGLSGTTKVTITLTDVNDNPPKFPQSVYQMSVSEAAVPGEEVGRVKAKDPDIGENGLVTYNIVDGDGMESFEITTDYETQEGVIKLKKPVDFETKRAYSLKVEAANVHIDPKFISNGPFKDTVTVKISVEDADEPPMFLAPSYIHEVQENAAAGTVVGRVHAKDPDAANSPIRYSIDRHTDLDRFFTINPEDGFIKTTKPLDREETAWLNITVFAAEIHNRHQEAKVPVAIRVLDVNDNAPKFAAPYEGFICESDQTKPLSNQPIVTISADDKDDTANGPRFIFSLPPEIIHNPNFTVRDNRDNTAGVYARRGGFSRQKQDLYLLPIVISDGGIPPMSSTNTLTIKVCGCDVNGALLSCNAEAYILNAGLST

CDH11 (SACC-83 cells) = target: T2, CDH11 (SACC-83 cells) (Homo sapiens, UniProt P55287); test: cellular thermal shift assay (western blot); assay type: cell-based; conditions: intact cells, 6 h treatment at cell-viability IC50 dose; 53-66 °C, 3 min
T2 construct: endogenous CDH11 in intact SACC-83 cells, untagged, detected by western blot with anti-CDH11 antibody
T2 sequence (P55287 54-796): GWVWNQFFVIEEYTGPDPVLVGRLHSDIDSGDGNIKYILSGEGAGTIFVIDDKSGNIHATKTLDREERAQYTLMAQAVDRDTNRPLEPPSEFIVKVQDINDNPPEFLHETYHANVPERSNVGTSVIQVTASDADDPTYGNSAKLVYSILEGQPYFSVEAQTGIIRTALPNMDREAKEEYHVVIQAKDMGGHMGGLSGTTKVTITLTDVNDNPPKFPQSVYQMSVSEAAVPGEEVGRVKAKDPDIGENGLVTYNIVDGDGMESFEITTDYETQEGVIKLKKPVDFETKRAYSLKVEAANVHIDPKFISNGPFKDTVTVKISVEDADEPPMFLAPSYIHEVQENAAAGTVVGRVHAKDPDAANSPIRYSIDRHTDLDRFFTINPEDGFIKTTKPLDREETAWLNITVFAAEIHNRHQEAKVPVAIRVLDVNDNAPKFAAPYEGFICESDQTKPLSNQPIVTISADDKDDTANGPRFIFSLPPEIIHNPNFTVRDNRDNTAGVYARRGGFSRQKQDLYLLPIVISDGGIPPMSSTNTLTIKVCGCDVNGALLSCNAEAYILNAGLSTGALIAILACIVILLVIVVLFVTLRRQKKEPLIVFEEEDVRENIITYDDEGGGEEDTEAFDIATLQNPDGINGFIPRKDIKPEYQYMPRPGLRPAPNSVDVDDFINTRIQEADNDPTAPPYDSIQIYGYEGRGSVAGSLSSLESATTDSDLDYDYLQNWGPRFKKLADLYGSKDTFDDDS

| Kd [1] [µM] | Kd ([1]; 25 °C, analyte 3.125-100 µM) [µM] | Molecule | cellular thermal shift assay (western blot) (CDH11 (SACC-83 cells)) |
| --- | --- | --- | --- |
| 4.67 |  | Cc1ccc(-c2cc(C(F)(F)F)nn2-c2ccc(S(N)(=O)=O)cc2)cc1 [CXB, Celecoxib] | All three compounds exhibited significant binding capability toward CDH11 |
| 10.9 |  | Cc1ccc(C)c(-c2cc(C(F)(F)F)nn2-c2ccc(S(N)(=O)=O)cc2)c1 [DMC, Dimethylcelecoxib] | All three compounds exhibited significant binding capability toward CDH11 |
|  | 27.4 | SD-133 |  |
